Source: patent US20260184692A1, “HETEROCYCLIC COMPOUNDS, PREPARATION METHODS AND USES THEREOF” (InventisBio Co., Ltd., priority 2022, published 2026)

Test system: not listed separately
Test: Mouse PK Assay
Type: in vivo
Settings: plasma; male BALB/c mouse, IV

Row | SMILES | MRT [h]
1 | N#Cc1ccc(N2CC3(CCC4(CC4)CC3)c3cc(NS(=O)(=O)CCO)c(F)cc3C2=O)nc1N1CCC(F)(F)CC1 [Compound 75] | 8

Same assay, conditions: plasma; male BALB/c mouse, single oral dose 5 mg/kg; read-out: PO T1/2 (converted)

Row | SMILES | half-life [h]
2 | N#Cc1ccc(N2CC3(CCC4(CC4)CC3)c3cc(NS(=O)(=O)CCO)c(F)cc3C2=O)nc1N1CCC(F)(F)CC1 [Compound 75] | 6.3

Test system: HCC1806 Cells
Test: HCC1806 Cell Viability Assay (CellTiter-Glo)
Type: cell-based
Settings: Homo sapiens, 144 h, 6 days incubation, read-out: HCC1806 CTG IC50
Method: HCC1806 Cells (ATCC, Cat #CRL-2335) were seeded at a density of 500 cells/well in a 96-well clear bottom plate (Greiner, Cat #655098) in 100 μL of complete media (RPMI1640+10% FBS). One hundred microliter of complete media was added into the blank wells (column 1) for low control. Cells were allowed to adhere to the plate overnight in the incubator at 37° C., 5% CO2. On the following day, 0.5 μL of serially-diluted compounds were added to the cells (columns 2-10) and incubated for 6 days at 37° C., 5% CO2 (final 0.5% DMSO concentration); 0.5 μL of DMSO solution was added into the wells (column 11) for high control. Cell viability was detected according to the CellTiter-Glo Luminescent Cell Viability Assay Kit (Promega, Cat #G7573). Luminescence was recorded on the Tecan Spark plate reader. Inhibition rate (IR) of the tested compounds was determined by the following formula: IR (%)=(1−(RLUcompound−RLUlow control)/(RLUhigh control−RLUlow control))×100%. The IC50 value was calculated using the non-linear regression equation: Y=Bottom+(Top−Bottom)/(1+10^((Log IC50−X)×HillSlope)), where X is Log of compound concentration, Y is percent inhibition (IR (%)), Top and Bottom are plateaus in same units as Y.

Row | SMILES | IC50 [nM]
3 | O=C1c2ccc(NS(=O)(=O)CCO)cc2C2(CCC3(CC3)CC2)CN1c1cccc(N2CCC3CC32)n1 (stereo not drawn) [Compound 26] | 200 to 2000
4 | O=C1c2ccc(NS(=O)(=O)CCO)cc2C2(CCC3(CC3)CC2)CN1c1ccnc(N2CCC(F)(F)C2)n1 [Compound 12] | 200 to 2000
5 | CN1CCOc2ccc(NC(=O)c3ccc(NS(=O)(=O)CCO)cc3N3CCC4(CC3)CC4)nc21 [Compound 7] | > 2000
6 | O=C(Nc1ccc2c(c1)ncn2CC(F)(F)F)c1ccc(NS(=O)(=O)CCO)cc1N1CCC2(CC1)CC2 [Compound 3] | > 2000
7 | O=C1c2ccc(NS(=O)(=O)CCO)cc2C2(CCC3(CC3)CC2)CN1c1ccc2c(n1)N1CCC(F)(F)CC1CO2 (stereo not drawn) [Compound 31] | 200 to 2000
8 | Cc1cc(NC(=O)c2ccc(NS(=O)(=O)CCO)cc2C2=CCC3(CC2)CC3)nc(N2CCC(F)(F)CC2)n1 [Compound 6] | < 200
9 | CN(c1cccc(N2CC3(CCC4(CC4)CC3)c3cc(NS(=O)(=O)CCO)ccc3C2=O)n1)C1CC(F)(F)C1 [Compound 34] | < 200

Test system: OVCAR3 Cells
Test: OVCAR3 Cell Viability Assay (CellTiter-Glo)
Type: cell-based
Settings: Homo sapiens, OVCAR-3, 144 h, 6 days incubation, read-out: OVCAR3 CTG IC50
Method: OVCAR3 Cells (ATCC, Cat #HTB-161) were seeded at a density of 2000 cells/well in a 96-well clear bottom plate (Greiner, Cat #655098) in 100 μL of complete media (RPMI1640+20% FBS+0.01 mg/mL human insulin). One hundred microliter of complete media was added into the blank well (column 1) for low control. Cells were allowed to adhere to the plate overnight in the incubator at 37° C., 5% CO2. On the following day, 0.5 μL of serially-diluted compounds were added to the cells (columns 2-10) and incubated for 6 days at 37 C, 5% CO2 (final 0.5% DMSO concentration); 0.5 μL of DMSO solution was added into the wells (column 11) for high control. Cell viability was detected according to the CellTiter-Glo Luminescent Cell Viability Assay Kit (Promega, Cat #G7573). Luminescence was recorded on the Tecan Spark plate reader. Inhibition rate (IR) of the tested compounds was determined by the following formula: IR (%)=(1−(RLUcompound−RLUlow control)/(RLUhigh control−RLUlow control))×100%. The IC50 value was calculated using the non-linear regression equation: Y=Bottom+(Top−Bottom)/(1+10^((Log IC50−X)×HillSlope)), where X is Log of compound concentration, Y is percent inhibition (IR (%)), Top and Bottom are plateaus in same units as Y.

Row | SMILES | IC50 [nM]
10 | O=C1c2ccc(NS(=O)(=O)CCO)cc2C2(CCC3(CC3)CC2)CN1c1cccc(N2CCC3CC32)n1 (stereo not drawn) [Compound 26] | 200 to 2000
11 | O=C1c2ccc(NS(=O)(=O)CCO)cc2C2(CCC3(CC3)CC2)CN1c1ccnc(N2CCC(F)(F)C2)n1 [Compound 12] | 200 to 2000
12 | CC(C)[C@H](N)C(=O)OCCS(=O)(=O)Nc1ccc2c(c1)C1(CCC3(CC3)CC1)CN(c1ccnc(NC3CC(F)(F)C3)n1)C2=O [Compound 135] | < 200
13 | CC1(F)CCC2(CC1)CN(c1ccc(C#N)c(N3CCC(F)(F)CC3)n1)C(=O)c1ccc(NS(=O)(=O)CCO)cc12 (stereo not drawn) [Compound 105] | < 200
14 | O=C(Nc1ccc2c(c1)ncn2CC(F)(F)F)c1ccc(NS(=O)(=O)CCO)cc1N1CCC2(CC1)CC2 [Compound 3] | > 2000
15 | CC1(F)CCC2(CC1)CN(c1ccnc(N3CCC(F)(F)CC3)n1)C(=O)c1ccc(NS(=O)(=O)CCO)cc12 (stereo not drawn) [Compound 103] | 200 to 2000
16 | O=C1c2ccc(NS(=O)(=O)CCO)cc2C2(CCC3(CC3)CC2)CN1c1ccc2c(n1)N1CCC(F)(F)CC1CO2 (stereo not drawn) [Compound 31] | 200 to 2000
17 | O=C1c2cc(F)c(NS(=O)(=O)CCO)cc2C2(CCC3(CC3)CC2)CN1c1ccnc(NC2CC(F)(F)C2)n1 [Compound 65] | 200 to 2000
18 | NC(=O)c1ccc(N2CC3(CCC4(CC4)CC3)c3cc(NS(=O)(=O)CCO)ccc3C2=O)nc1N1CCC(F)(F)CC1 [Compound 139] | < 200
19 | O=C1c2ccc(NS(=O)(=O)CCO)cc2C2(CCC3(CC3)CC2)CN1c1ccc(=O)n(CC2CC(F)(F)C2)n1 [Compound 83] | 200 to 2000
20 | CC1(F)CCN(c2nc(N3CC4(CCC5(CC5)CC4)c4cc(NS(=O)(=O)CCO)ccc4C3=O)ccc2F)CC1 [Compound 40] | < 200
21 | CN(c1nccc(N2CC3(CCC4(CC4)CC3)c3cc(NS(=O)(=O)CCO)ccc3C2=O)n1)C1CCC(F)(F)C1 (stereo not drawn) [Compound 50] | 200 to 2000
22 | CC1CCN(c2nc(N3CC4(CCC5(CC5)CC4)c4cc(NS(=O)(=O)CCO)ccc4C3=O)ccc2F)CC1 [Compound 37] | 200 to 2000
23 | O=C1c2ccc(NS(=O)(=O)CCO)cc2C2(CCC3(CC3)CC2)CN1c1ccc(F)c(N2CCCC(F)(F)CC2)n1 [Compound 47] | < 200
24 | O=C1c2cc(F)c(NS(=O)(=O)CCO)cc2C2(CCC3(CC3)CC2)CN1c1ccnc(N2CCC(F)(F)CC2)n1 [Compound 41] | 200 to 2000
25 | NC(=O)c1ccc(N2CC3(CCC4(CC4)CC3)c3cc(NS(=O)(=O)CCO)ccc3C2=O)nc1NC1CC(F)(F)C1 [Compound 167] | < 200
26 | CN1CCN(C(=O)c2ccc(N3CC4(CCC5(CC5)CC4)c4cc(NS(=O)(=O)CCO)ccc4C3=O)nc2N2CCC(F)(F)CC2)CC1 [Compound 172] | 200 to 2000
27 | O=C1c2ccc(NS(=O)(=O)CC(F)(F)F)cc2C2(CCC3(CC3)CC2)CN1c1ccnc(NC2CC(F)(F)C2)n1 [Compound 166] | > 2000
28 | O=C1c2ccc(NS(=O)(=O)CCO)cc2C2(CCC3(CC3)CC2)CN1c1ccc2ncn(CC(F)(F)F)c2n1 [Compound 60] | 200 to 2000
29 | O=C1c2ccc(NS(=O)(=O)CCO)cc2C2(CCC3(CC3)CC2)CN1c1ccc(O)c(N2CCC(F)(F)CC2)n1 [Compound 137] | < 200
30 | O=C1c2ncc(NS(=O)(=O)CCO)cc2C2(CCC3(CC3)CC2)CN1c1ccnc(N2CCC(F)(F)CC2)n1 [Compound 64] | 200 to 2000
31 | CCS(=O)(=O)Nc1ccc2c(c1)C1(CCC3(CC3)CC1)CN(c1ccnc(NC3CC(F)(F)C3)n1)C2=O [Compound 145] | < 200
32 | O=C1c2ccc(NS(=O)(=O)CCO)cc2C2(CCC3(CC3)CC2)CN1c1ccnc(NC2CCCC2)n1 [Compound 66] | < 200
33 | N#Cc1ccc(N2CC3(CCC(F)(F)CC3)c3cc(NS(=O)(=O)CCO)c(F)cc3C2=O)nc1N1CCC(F)(F)CC1 [Compound 126] | < 200

Row | SMILES | IC50 [nM]
34 | O=C1c2ccc(NS(=O)(=O)CCO)cc2C2(CCC3(CC3)CC2)CN1c1cncc(N2CCC(F)(F)CC2)n1 [Compound 54] | < 200
35 | O=C1c2ccc(NS(=O)(=O)CCO)cc2C2(CCC3(CC3)CC2)CN1c1cccc(NC2CC(F)(F)C2)n1 [Compound 48] | < 200
36 | Cc1cc(NC(=O)c2ccc(NS(=O)(=O)CCO)cc2C2=CCC3(CC2)CC3)nc(N2CCC(F)(F)CC2)n1 [Compound 6] | < 200
37 | CN(c1nc(N2CC3(CCC4(CC4)CC3)c3cc(NS(=O)(=O)CCO)ccc3C2=O)ccc1C#N)C1CC(F)(F)C1 [Compound 49] | < 200
38 | O=C1c2cnc(NS(=O)(=O)CCO)cc2C2(CCC3(CC3)CC2)CN1c1ccc(F)c(N2CCC(F)(F)CC2)n1 [Compound 107] | < 200
39 | O=C1c2ccc(NS(=O)(=O)CCO)cc2C2(CCC3(CC3)CC2)CN1c1cccc(CN2CCC(F)(F)C2)n1 [Compound 19] | < 200
40 | Cc1nccc(-c2ccc(N3CC4(CCC5(CC5)CC4)c4cc(NS(=O)(=O)CCO)ccc4C3=O)nc2NC2CC(F)(F)C2)n1 [Compound 174] | < 200
41 | CN(c1cccc(N2CC3(CCC4(CC4)CC3)c3cc(NS(=O)(=O)CCO)ccc3C2=O)n1)C1CC(F)(F)C1 [Compound 34] | < 200
42 | CN(C)CCS(=O)(=O)Nc1ccc2c(c1)C1(CCC3(CC3)CC1)CN(c1ccc(C#N)c(N3CCC(F)(F)CC3)n1)C2=O [Compound 147] | 200 to 2000
43 | O=C1c2ccc(NS(=O)(=O)CCO)cc2C2(CCC3(CC3)CC2)CN1c1cncc(NC2CC(F)(F)C2)n1 [Compound 58] | 200 to 2000
44 | O=C1c2ccc(NS(=O)(=O)CCO)cc2C2(CCC(F)(F)CC2)CN1c1ccnc(N2CCC(F)(F)CC2)n1 [Compound 67] | 200 to 2000
45 | N#Cc1ccc(N2CC3(CCC(F)(F)CC3)c3cc(NS(=O)(=O)CCO)ccc3C2=O)nc1N1CCC(F)(F)CC1 [Compound 78] | < 200
46 | O=C1c2ccc(NS(=O)(=O)CCO)cc2C2(CCC3(CCC3)CC2)CN1c1ccnc(NC2CC(F)(F)C2)n1 [Compound 124] | < 200
47 | N#Cc1ncc(N2CC3(CCC4(CC4)CC3)c3cc(NS(=O)(=O)CCO)ccc3C2=O)nc1N1CCC(F)(F)CC1 [Compound 157] | < 200
48 | O=C1c2ccc(NS(=O)(=O)CCO)cc2C2(CCC(F)(F)CC2)CN1c1ccnc(NC2CC(F)(F)C2)n1 [Compound 97] | 200 to 2000
49 | CN1CCC(c2ccc(N3CC4(CCC5(CC5)CC4)c4cc(NS(=O)(=O)CCO)ccc4C3=O)nc2N2CCC(F)(F)CC2)CC1 [Compound 179] | 200 to 2000
50 | N#Cc1ccc(N2CC3(CCC4(CC4)CC3)c3cc(NS(=O)(=O)CCO)ccc3C2=O)nc1CN1CC(F)(F)C1 [Compound 57] | > 2000
51 | Cn1cc(-c2ccc(N3CC4(CCC5(CC5)CC4)c4cc(NS(=O)(=O)CCO)ccc4C3=O)nc2N2CCC(F)(F)CC2)cn1 [Compound 141] | < 200
52 | CC(c1nc(N2CC3(CCC4(CC4)CC3)c3cc(NS(=O)(=O)CCO)ccc3C2=O)ccc1C#N)N1CC(F)(F)C1 (stereo not drawn) [Compound 55] | > 2000
53 | COc1ccc(N2CC3(CCC4(CC4)CC3)c3cc(NS(=O)(=O)CCN(C)C)ccc3C2=O)nc1N1CCC(F)(F)CC1 [Compound 153] | 200 to 2000
54 | NC(=O)c1ncc(N2CC3(CCC4(CC4)CC3)c3cc(NS(=O)(=O)CCO)ccc3C2=O)nc1N1CCC(F)(F)CC1 [Compound 165] | < 200
55 | CN1CCN(c2ccc(N3CC4(CCC5(CC5)CC4)c4cc(NS(=O)(=O)CCO)ccc4C3=O)nc2N2CCC(F)(F)CC2)C(=O)C1 [Compound 178] | < 200
56 | N#Cc1ccc(N2CC3(CCC4(CC4)CC3)c3cc(NS(=O)(=O)C(F)(F)F)ccc3C2=O)nc1N1CCC(F)(F)CC1 [Compound 159] | 200 to 2000
57 | CC1CN(c2nc(N3CC4(CCC5(CC5)CC4)c4cc(NS(=O)(=O)CCO)ccc4C3=O)ccc2C#N)CCO1 (stereo not drawn) [Compound 63] | < 200
